Laboratory results published in the supplement of paper PMC10307832.

What was measured:
Assay in all cases: relative viability (nuclei count vs DMSO), 5 days (fraction); higher = more cells survive
[1] = compound: CC1CC(=O)N(C2=CN=C(N=C2N1C3CCCC3)NC4=C(C=C(C=C4)C(=O)NC5CCN(CC5)C)OC)C [NPK76-II-72-1]
Method in brief: (§1)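 Lung cancer cell lines in 1536-well plates were kept overnight at 37 °C, then pinned with five library-drug doses (not always all listed) spaced by √10 on vehicle-anchored plates. After 5 days without medium change, cells were fixed, permeabilised and Hoechst-stained in one step, imaged at 4×, and nuclei were counted with MetaXpress. Viability is treated-well nuclei divided by vehicle-well nuclei, taken as the median over plates. Plates passed only with control CV below 25% and at least one doubling.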

[2] = compound: CC[C@@H]1C(=O)N(C)c2cnc(Nc3ccc(C(=O)NC4CCN(C)CC4)cc3OC)nc2N1C1CCCC1 [BI-2536]
Method in brief: as §1

[3] = compound: CC[C@@H]1C(=O)N(C)c2cnc(Nc3ccc(C(=O)NC4CCN(C)CC4)cc3OC)nc2N1C1CCCC1 [BI-2536] + COc1cc2c(Oc3ccc(NC(=O)C4(C(=O)Nc5ccc(F)cc5)CC4)cc3F)ccnc2cc1OCCCN1CCOCC1 [Foretinib] (partner 0.25 µM)
Method in brief: (§2)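 A single step with final 0.05% Triton X-100, 1% formaldehyde and 1 ug/ml Hoechst fixed the cells and stained nuclei 5 days after treatment. Lung cancer cell lines in 1536-well plates had been treated by pin tool the day after seeding with one drug alone or a fixed anchor-drug dose plus five library-drug doses (not always all listed) in √10 steps, and nuclei were counted on 4× images. Relative viability is the ratio of nuclei in treated wells to nuclei in vehicle wells, taken as the median of duplicate plates.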

[4] = compound: CC[C@@H]1C(=O)N(C)c2cnc(Nc3ccc(C(=O)NC4CCN(C)CC4)cc3OC)nc2N1C1CCCC1 [BI-2536] + CS(=O)(=O)N1CCN(Cc2cc3nc(-c4cccc5[nH]ncc45)nc(N4CCOCC4)c3s2)CC1 [Pictilisib] (partner 1 µM)
Method in brief: as §2

UMC-11
relative viability ([1]; 0.01 µM): 0.93
relative viability ([1]; 0.03162 µM): 0.95
relative viability ([1]; 0.1 µM): 1.01
relative viability ([1]; 0.3162 µM): 0.909
relative viability ([1]; 1 µM): 0.931
relative viability ([2]; 0.01 µM): 0.923
relative viability ([2]; 0.03162 µM): 0.624
relative viability ([2]; 0.1 µM): 0.175
relative viability ([2]; 0.3162 µM): 0.205
relative viability ([2]; 1 µM): 0.2
relative viability ([3]; first compound 0.01 µM): 0.927
relative viability ([3]; first compound 0.03162 µM): 0.661
relative viability ([3]; first compound 0.1 µM): 0.174
relative viability ([3]; first compound 0.3162 µM): 0.19
relative viability ([3]; first compound 1 µM): 0.191
relative viability ([4]; first compound 0.01 µM): 0.851
relative viability ([4]; first compound 0.03162 µM): 0.647
relative viability ([4]; first compound 0.1 µM): 0.11
relative viability ([4]; first compound 0.3162 µM): 0.153
relative viability ([4]; first compound 1 µM): 0.14
